Data on 42 compounds can be found in ChEMBL document CHEMBL5308504, “Tm Shift (DSF) assay results for EUbOPEN Chemogenomics Library” (2023).

The target of test [1] is T1, Peregrin (Homo sapiens) (UniProt P55201).
T1 sequence (whole entry): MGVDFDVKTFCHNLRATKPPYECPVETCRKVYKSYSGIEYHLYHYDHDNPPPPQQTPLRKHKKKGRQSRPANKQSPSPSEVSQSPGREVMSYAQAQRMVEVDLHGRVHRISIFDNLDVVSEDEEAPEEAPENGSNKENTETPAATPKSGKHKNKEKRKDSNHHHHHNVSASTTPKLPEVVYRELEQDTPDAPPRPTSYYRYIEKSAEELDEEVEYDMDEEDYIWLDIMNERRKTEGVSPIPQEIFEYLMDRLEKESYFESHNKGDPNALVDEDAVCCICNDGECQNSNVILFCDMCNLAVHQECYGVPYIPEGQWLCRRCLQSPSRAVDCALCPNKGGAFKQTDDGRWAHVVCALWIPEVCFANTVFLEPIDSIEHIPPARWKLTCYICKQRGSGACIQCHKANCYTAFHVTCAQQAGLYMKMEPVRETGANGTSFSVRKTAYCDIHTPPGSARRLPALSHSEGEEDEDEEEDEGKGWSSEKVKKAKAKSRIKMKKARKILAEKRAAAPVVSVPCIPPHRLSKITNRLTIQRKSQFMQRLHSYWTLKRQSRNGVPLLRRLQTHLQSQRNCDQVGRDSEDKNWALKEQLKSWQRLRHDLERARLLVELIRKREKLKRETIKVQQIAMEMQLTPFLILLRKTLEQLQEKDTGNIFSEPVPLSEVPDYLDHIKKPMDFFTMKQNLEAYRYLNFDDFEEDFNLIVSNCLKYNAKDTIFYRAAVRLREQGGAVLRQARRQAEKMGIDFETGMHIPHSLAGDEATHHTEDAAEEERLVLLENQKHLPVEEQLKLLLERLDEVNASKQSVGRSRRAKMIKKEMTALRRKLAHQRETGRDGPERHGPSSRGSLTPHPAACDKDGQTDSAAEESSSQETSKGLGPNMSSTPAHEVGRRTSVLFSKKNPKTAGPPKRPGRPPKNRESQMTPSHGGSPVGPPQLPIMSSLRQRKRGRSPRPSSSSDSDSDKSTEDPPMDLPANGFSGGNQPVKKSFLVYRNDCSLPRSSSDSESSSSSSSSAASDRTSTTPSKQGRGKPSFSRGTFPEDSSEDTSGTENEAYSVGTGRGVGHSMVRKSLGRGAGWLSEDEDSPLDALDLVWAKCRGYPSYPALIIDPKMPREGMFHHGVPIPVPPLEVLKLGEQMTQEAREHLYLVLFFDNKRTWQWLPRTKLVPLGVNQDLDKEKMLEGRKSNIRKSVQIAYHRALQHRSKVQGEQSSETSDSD
The following applies: Compound concentration 20.0 uM, Protein concentration 2.0 uM, Result type QC Liability.

Test [2] deals with Fibroblast growth factor receptor 3 (Homo sapiens) (UniProt P22607). The note with it: Compound concentration 20.0 uM, Protein concentration 2.0 uM, Result type QC Liability.
Sequence of Fibroblast growth factor receptor 3 (Homo sapiens) (P22607 23-806 limits assumed): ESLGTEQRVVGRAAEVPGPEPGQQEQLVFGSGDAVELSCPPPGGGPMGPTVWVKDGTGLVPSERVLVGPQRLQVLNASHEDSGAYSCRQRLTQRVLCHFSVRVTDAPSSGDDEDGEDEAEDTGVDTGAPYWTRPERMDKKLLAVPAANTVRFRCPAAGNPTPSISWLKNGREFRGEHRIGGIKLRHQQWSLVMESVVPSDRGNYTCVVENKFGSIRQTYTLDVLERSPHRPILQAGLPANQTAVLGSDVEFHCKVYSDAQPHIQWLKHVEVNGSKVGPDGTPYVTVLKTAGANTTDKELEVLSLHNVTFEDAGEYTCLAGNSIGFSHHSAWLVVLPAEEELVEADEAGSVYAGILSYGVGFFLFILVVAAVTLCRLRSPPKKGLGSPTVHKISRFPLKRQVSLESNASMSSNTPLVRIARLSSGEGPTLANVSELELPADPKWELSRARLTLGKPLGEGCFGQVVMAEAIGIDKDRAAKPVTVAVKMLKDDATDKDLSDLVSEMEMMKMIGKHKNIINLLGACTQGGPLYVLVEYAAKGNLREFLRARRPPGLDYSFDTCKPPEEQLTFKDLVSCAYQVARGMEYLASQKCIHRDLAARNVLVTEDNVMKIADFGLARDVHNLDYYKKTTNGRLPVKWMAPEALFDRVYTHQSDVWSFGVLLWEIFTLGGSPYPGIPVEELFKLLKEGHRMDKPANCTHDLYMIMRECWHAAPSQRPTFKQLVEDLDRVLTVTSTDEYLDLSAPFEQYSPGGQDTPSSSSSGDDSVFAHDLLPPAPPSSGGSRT
Description: Thermal Shift Assay. Domain: start/stop: P449-E759

Take `CCC(=O)N[C@@H]1CC[C@H](C(=O)N(C)c2ccc(-c3nc4ccccc4o3)cc2)C1`: the ΔTm was -1.58 °C in test [1] and 0.71 °C in test [2].

As for `Cc1cnc(-c2cnc(NCCNc3ccc(C#N)cn3)nc2-c2ccc(Cl)cc2Cl)[nH]1`, the ΔTm is -2.19 °C in test [1] and 1.41 °C in test [2].

`Cc1nn(-c2ccccc2)c(Nc2ccccc2C(=O)O)c1-c1cc2nccnc2c(F)c1F`: the ΔTm in test [1] was -2.93 °C; in test [2], 1.95 °C.

As to `Cn1ncc(NC(=O)c2nc(-c3c(F)cccc3F)sc2N)c1N1CC[C@@H](N)[C@H](F)CC1`, the results for the ΔTm in test [1] and in test [2] were -0.66 °C and 0.81 °C, respectively.

On to `C[C@@H]1CC[C@@]2(OC1)O[C@H]1[C@@H](O)[C@H]3[C@@H]4CC[C@H]5C[C@@H](O[C@@H]6O[C@H](CO)[C@H](O[C@@H]7O[C@H](CO)C(O)[C@H](O[C@@H]8OC[C@@H](O)[C@H](O)[C@H]8O)[C@H]7O[C@@H]7O[C@H](CO)[C@H](O)[C@H](O[C@@H]8O[C@H](CO)[C@@H](O)[C@H](O)[C@H]8O)[C@H]7O)[C@H](O)[C@H]6O)[C@H](O)C[C@]5(C)[C@H]4CC[C@]3(C)[C@H]1[C@@H]2C` (some centres undefined), for which the ΔTm is -1.35 °C in test [1] and 0.72 °C in test [2].

As to `N#Cc1cccc(-c2c[nH]c3ncnc(N4CCOCC4)c23)c1`, the figures for the ΔTm in test [1] and in test [2] were -1.1 °C and 2.14 °C, respectively.

Regarding `COc1cc(-c2nn([C@H]3CC[C@H](N4CCN(C(C)=O)CC4)CC3)c3ncnc(N)c23)ccc1NC(=O)c1cc2ccccc2n1C`, the ΔTm in test [1] was -2.71 °C; in test [2] it was 0.83 °C.

For `CCC(C(=O)Nc1ccc(-c2cc3ccccc3s2)c(C(N)=O)c1)c1nccs1` (centres undefined), the ΔTm was -1.09 °C in test [1] and 0.48 °C in test [2].

Take `CSc1nc2c(c(=O)n(C)c(=O)n2C)n1C`: the ΔTm in test [1] was -2.2 °C; in test [2], 0.45 °C.

With `CN(C)[C@H]1CC[C@H](Nc2ncc3ncnc(Nc4ccc(F)c(Cl)c4)c3n2)CC1`, the ΔTm turned out to be 1.59 °C in test [1] and 0.8 °C in test [2].

As for `C[C@@H](COCCC(=O)N1CCN(c2ncc(C(F)(F)F)cn2)CC1)Nc1cn[nH]c(=O)c1C(F)(F)F`, the ΔTm in test [1] was -0.15 °C; in test [2] it was 0.48 °C.

Consider `COc1ccc(OC(=O)N(CC(=O)O)Cc2ccc(OCCc3nc(-c4ccccc4)oc3C)cc2)cc1`, for which the ΔTm is -1.99 °C in test [1] and 0.89 °C in test [2].

In the case of `Nc1ncnc2[nH]c(-c3ccccc3)nc12`, the ΔTm in test [1] was -0.39 °C; in test [2], 1.78 °C.

Take `Cc1nc2c(cc1F)c(-c1nnc3c(n1)NC(=O)C3(C)C)nn2Cc1cccc(F)c1F`: the ΔTm in test [1] is -2.09 °C; in test [2], 0.5 °C.

Turning to `CN[C@@H](C)C(=O)N[C@H](C(=O)N1CCC[C@H]1C(=O)Nc1sc(-c2ncco2)nc1-c1ccccc1)C1CCCCC1`, the shift in melting temperature (ΔTm) in test [1] was -1.67 °C; in test [2], 0.43 °C.

As for `COc1ccccc1-c1cc(Nc2cccc(CS(N)(=O)=O)c2)ncn1`, the ΔTm in test [1] was -0.77 °C; in test [2], 0.74 °C.

On to `Cc1cc(SCc2sc(-c3ccc(C(F)(F)F)cc3)nc2C)ccc1OCC(=O)O`, for which the figures for the ΔTm in test [1] and in test [2] were -1.59 °C and 1.04 °C, respectively.

On to `Cc1c(CN2CCC3(CC2)CN(c2ncnc4sc(CC(F)(F)F)cc24)C3)ccc2c1cc(C#N)n2CC(N)=O`, for which the shift in melting temperature (ΔTm) in test [1] is -1.41 °C; in test [2], 0.67 °C.

`CCC(=O)N[C@H]1CC[C@@H](C(=O)N(C)c2ccc(-c3nc4ccccc4o3)cc2)C1`: the ΔTm in test [1] is -2.71 °C; in test [2] it was 0.8 °C.

Consider `N#C/C(=C\c1ccc(O)c(O)c1)C(=O)OCCc1cccs1`, for which the ΔTm in test [1] is -0.27 °C; in test [2], 1.51 °C.

As to `CCc1ncnc(N2CCN(C(C)=O)CC2)c1C#Cc1ccc(N)nc1`, the values for the ΔTm in test [1] and in test [2] were -1.29 °C and 0.7 °C, respectively.

On to `O=C(NC[C@@H]1[C@H]2CN(C(=O)OCc3cc(C(F)(F)F)cc(C(F)(F)F)c3)C[C@@H]12)c1ccc2[nH]nnc2c1`, for which the results for the ΔTm in test [1] and in test [2] were -0.49 °C and 1.51 °C, respectively.

Take `Cc1cc([N+](=O)[O-])c(NS(=O)(=O)c2cccc(C(=O)O)c2)cc1-c1cccnc1`: the ΔTm in test [1] worked out at 0.37 °C; in test [2] it was 0.67 °C.

In the case of `CC(C)S(=O)(=O)c1ccccc1Nc1nc(N[C@@H]2CCCN(CCCCCCCNC(=O)COc3cccc4c3C(=O)N(C3CCC(=O)NC3=O)C4=O)C2)ncc1Cl` (some centres undefined), the figures for the ΔTm in test [1] and in test [2] were 0.63 °C and 7.81 °C, respectively.

Consider `CNc1nc(Nc2ccc(C(=O)N3CCOCC3)cc2OC)ncc1Cl`, for which the ΔTm is -1.86 °C in test [1] and 0.95 °C in test [2].

In the case of `CCCS(=O)(=O)Nc1ccc(F)c(Nc2ncnc3cnc(-n4cnc(C)c4)nc23)c1F`, the ΔTm in test [1] was found to be 0.01 °C; in test [2], 1.06 °C.

For the compound `O=C(CCCCCCc1ccccc1)c1ncc(-c2ccccn2)o1`, the ΔTm in test [1] was -3.08 °C; in test [2], 0.46 °C.

In the case of `N[C@H](C(=O)O)[C@@H]1CC(Cl)=NO1`, the ΔTm in test [1] is -1.19 °C; in test [2], 0.45 °C.

Take `Nc1ncc2c(n1)-c1c([nH]c3ccc(C4CC4)cc13)CCCC2`: the ΔTm in test [1] was -1.74 °C; in test [2], 0.81 °C.

Regarding `Clc1ccccc1C(c1ccccc1)(c1ccccc1)n1cccn1`, the ΔTm is -3.65 °C in test [1] and 0.25 °C in test [2].

With `COc1cc(-c2cncc(-c3ccc(N4CCN(C(C)C)CC4)cc3)c2C)cc(F)c1C(N)=O`, the ΔTm in test [1] is -1.51 °C; in test [2] it was 0.64 °C.

Consider `NC(=O)OC[C@H](NC(=O)Cn1nc(-c2ccc(Cl)cc2)n(C[C@H](O)C(F)(F)F)c1=O)c1cccc(C(F)(F)F)c1`, for which the ΔTm was -3.24 °C in test [1] and 1.19 °C in test [2].

As for `O=C1CN(c2ccccc2F)C(NCCN2CCOCC2)=C1c1nc2cc(Br)ccc2c(=O)[nH]1`, the ΔTm in test [1] was -2.29 °C; in test [2], 0.53 °C.

`N=C(N)NCCC[C@@H](NC(=O)C(c1ccccc1)c1ccccc1)C(=O)NCc1ccc(CNC(N)=O)cc1`: the ΔTm in test [1] is -2 °C; in test [2], 0.46 °C.

Consider `C[C@H](CCC(=O)O)[C@H]1CC[C@H]2[C@@H]3CC[C@@H]4C[C@H](O)CC[C@]4(C)[C@H]3C[C@H](O)[C@]12C`, for which the ΔTm in test [1] is -1.82 °C; in test [2], 0.63 °C.

Take `Cn1ccc(Cn2cnc(-c3ccc(F)cc3)c2-c2ccnc3[nH]ccc23)n1`: the ΔTm is -1.13 °C in test [1] and 0.54 °C in test [2].

Consider `CCCCC[C@@](C)(O)/C=C/[C@H]1C(=O)CC(O)C1C/C=C\CCCC(=O)O` (some centres undefined), for which the ΔTm in test [1] is -1.97 °C; in test [2], 0.37 °C.

Turning to `Cc1[nH]nc(C(F)(F)F)c1Cc1sc2c(c1C(=O)N1C[C@](C)(O)CO1)c(=O)n(C)c(=O)n2C(C)C`, the ΔTm is -1.85 °C in test [1] and 0.52 °C in test [2].

Turning to `C[C@@H]1CN(CC(=O)N2CC(C)(C)c3nc(CO)c(Cc4ccc(F)cc4)cc32)[C@@H](CN2CCOC[C@H]2C)CN1`, the ΔTm was -2.93 °C in test [1] and 0.45 °C in test [2].

For `CC(=O)c1ccc2c(c1)/C(=C(/Nc1cccc(C#N)c1)c1ccc3c(c1)OCCO3)C(=O)N2`, the ΔTm in test [1] was -0.95 °C; in test [2], 4 °C.

As for `CC(C)C[C@H](NC(=O)[C@@H](O)[C@H](N)Cc1ccccc1)C(=O)O`, the results for the ΔTm in test [1] and in test [2] were -2.93 °C and 0.78 °C, respectively.

Consider `COc1cc(C(=O)NCCOCCOCCOCC(=O)N[C@H](C(=O)N2C[C@@H](O)C[C@H]2C(=O)NCc2ccc(-c3scnc3C)cc2)C(C)(C)C)ccc1Nc1ncc(C(F)(F)F)c(Oc2cccc3c2C(=O)CC3)n1`, for which the values for the ΔTm in test [1] and in test [2] were 1.72 °C and 1.69 °C, respectively.

The term ΔTm denotes the shift of the melting midpoint relative to a reference.
